Measurements reported in patent US11377442B2, “Small molecule agonists and antagonists of NR2F6 activity” (ZANDER THERAPEUTICS, INC., priority 2016, dated 2022).
“Also recorded” adds a separate entry of the source. Where two headings read alike, the source gives them in different places.

Legend:
Format in all cases: cell-based
ERα [1] = target: T1, ERα (Homo sapiens, UniProt P03372); experiment: Counterscreening, Firefly signal with ERα transient transfection (Firefly_ERa)
T1 construct: expressed in transfected cells
T1 sequence (P03372 1-595): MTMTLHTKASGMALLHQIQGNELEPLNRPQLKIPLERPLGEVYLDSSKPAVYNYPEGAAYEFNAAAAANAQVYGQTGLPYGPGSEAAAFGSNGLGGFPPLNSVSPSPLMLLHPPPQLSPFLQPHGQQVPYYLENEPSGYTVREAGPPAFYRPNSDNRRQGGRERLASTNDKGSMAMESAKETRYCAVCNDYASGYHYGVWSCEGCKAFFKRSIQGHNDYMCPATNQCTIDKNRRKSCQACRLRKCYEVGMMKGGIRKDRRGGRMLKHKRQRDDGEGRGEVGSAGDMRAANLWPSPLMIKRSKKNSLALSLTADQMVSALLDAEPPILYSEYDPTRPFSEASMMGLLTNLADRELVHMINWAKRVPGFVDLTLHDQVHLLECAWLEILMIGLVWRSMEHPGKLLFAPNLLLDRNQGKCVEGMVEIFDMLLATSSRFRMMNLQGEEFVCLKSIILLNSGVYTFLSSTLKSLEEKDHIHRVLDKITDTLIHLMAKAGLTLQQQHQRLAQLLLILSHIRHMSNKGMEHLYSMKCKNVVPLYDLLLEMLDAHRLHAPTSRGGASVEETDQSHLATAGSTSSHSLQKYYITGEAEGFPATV

ERα [2] = target: T1, ERα; experiment: as above; conditions: for Firefly ERalpha transient, cmpd/DMSO (mean): 10 uM; for Firefly_ERa, cmpd/DMSO repeat 1 / Firefly_ERa, cmpd/DMSO repeat 2: ERα transient transfection, 10 μM
Description: The methodology for screening candidate compounds as NR2F6 agonists was as follows: For primary screening, hit criteria was ACT %>DMSO control+5*SD (DSO control) at 10 μM, or any compound with S/B>2. For rescreening, hit criteria was ACT %>DMSO control+3*SD (DSO control) in each replicate at 10 μM. For counterscreening, hit criteria was mean ACT<DMSO control+3*SD (DMSO control) with ERα transient transfection in duplicate at 10 μM.

Renilla = Renilla signal in NR2F6 agonist screening, cmpd/DMSO; conditions: Renilla
Renilla_ERa = experiment: Renilla signal in ERα counterscreen (Renilla_ERa)
NR2F6 = target: T2, NR2F6 (Homo sapiens, UniProt P10588); experiment: NR2F6 agonist screening, Firefly signal cmpd/DMSO; conditions: for activity (in words): screening result
T2 construct: expressed in transfected cells; also transient transfection
T2 sequence (P10588 1-404): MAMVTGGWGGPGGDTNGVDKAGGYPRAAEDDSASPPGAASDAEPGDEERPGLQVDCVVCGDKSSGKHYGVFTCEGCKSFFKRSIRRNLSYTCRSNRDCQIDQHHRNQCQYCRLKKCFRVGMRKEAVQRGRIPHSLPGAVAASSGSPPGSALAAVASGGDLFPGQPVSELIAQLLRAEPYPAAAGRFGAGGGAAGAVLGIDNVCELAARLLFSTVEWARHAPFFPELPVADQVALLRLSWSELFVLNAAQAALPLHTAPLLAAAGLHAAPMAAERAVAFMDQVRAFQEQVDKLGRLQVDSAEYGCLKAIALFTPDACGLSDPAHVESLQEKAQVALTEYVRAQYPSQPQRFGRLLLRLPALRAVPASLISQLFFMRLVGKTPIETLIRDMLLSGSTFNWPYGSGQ

HEK293 pGL4 = experiment: Firefly_pGL signal, cmpd/DMSO (pGL4 control cells); conditions: Homo sapiens, HEK293, Table 14, read-out: Firefly pGL4, cmpd/DMSO (mean)
[3] = clone F4, read-out: Renilla F4, cmpd/DMSO (mean)
[4] = 10 uM, clone F4, read-out: Renilla F4, cmpd/DMSO (mean)
[5] = read-out: Renilla ERalpha transient, cmpd/DMSO (mean)
[6] = 10 uM, read-out: Renilla ERalpha transient, cmpd/DMSO (mean)
[7] = Table 14, read-out: Renilla F4, cmpd/DMSO (mean)
[8] = Table 14, 10 uM, read-out: Renilla F4, cmpd/DMSO (mean)
[9] = first set screening, 10 μM, repeat 1, read-out: Renilla, cmpd/DMSO repeat 1
[10] = first set screening, 10 μM, repeat 2, read-out: Renilla, cmpd/DMSO repeat 2
[11] = ERα transient transfection, 10 μM, repeat 1, read-out: Renilla_ERa, cmpd/DMSO repeat 1
[12] = ERα transient transfection, 10 μM, repeat 2, read-out: Renilla_ERa, cmpd/DMSO repeat 2
[13] = C11 analogs follow set (Tables 2-10)

SMILES	Firefly ERalpha transient, cmpd/DMSO (mean) (ERα [1]; 2 uM)	Firefly ERalpha transient, cmpd/DMSO (mean) (ERα [1]; 40 uM)	Firefly ERalpha transient, cmpd/DMSO (mean) (ERα [2])	fold induction at 2 µM (HEK293 pGL4)	fold induction at 10 µM (HEK293 pGL4)	fold induction at 40 µM (HEK293 pGL4)	Firefly_ERa, cmpd/DMSO repeat 1 (ERα [2])	Firefly_ERa, cmpd/DMSO repeat 2 (ERα [2])	fold induction at 2 µM (Renilla; [7])	fold induction at 10 µM (Renilla; [8])	fold induction at 40 µM (Renilla; [7])	fold induction at 10 µM (Renilla; [9])	fold induction at 10 µM (Renilla; [10])	fold induction at 10 µM (Renilla_ERa; [11])	fold induction at 10 µM (Renilla_ERa; [12])	Firefly F4, cmpd/DMSO (mean) (NR2F6; Table 14, 2 uM)	Firefly F4, cmpd/DMSO (mean) (NR2F6; Table 14, 10 uM)	Firefly F4, cmpd/DMSO (mean) (NR2F6; Table 14, 40 uM)	Firefly, cmpd/DMSO repeat 1 (NR2F6; first set screening, 10 μM)	Firefly, cmpd/DMSO repeat 2 (NR2F6; first set screening, 10 μM)	also measured
O=c1cccc2n1CC1CC2CN(c2nc(N3CCCC3)nc(N3CCCC3)n2)C1 (stereo not shown) [Compound 26]	1.0	1.1	1.3																		fold induction at 2 µM (Renilla; [3]): 1; fold induction at 10 µM (Renilla; [4]): 0.7; fold induction at 40 µM (Renilla; [3]): 0.7; fold induction at 2 µM (Renilla_ERa; [5]): 0.9; fold induction at 10 µM (Renilla_ERa; [6]): 1; fold induction at 40 µM (Renilla_ERa; [5]): 1; Firefly F4, cmpd/DMSO (mean) (NR2F6; 2 uM, clone F4): 1.0; Firefly F4, cmpd/DMSO (mean) (NR2F6; 10 uM, clone F4): 1.1; Firefly F4, cmpd/DMSO (mean) (NR2F6; 40 uM, clone F4): 1.3
O=c1cccc2n1CC1CC2CN(c2nc(Cl)nc(NCCN3CCOCC3)n2)C1 (stereo not shown) [Compound 27]	1.2	1.2	1.2																		fold induction at 2 µM (Renilla; [3]): 0.9; fold induction at 10 µM (Renilla; [4]): 0.9; fold induction at 40 µM (Renilla; [3]): 0.8; fold induction at 2 µM (Renilla_ERa; [5]): 1.1; fold induction at 10 µM (Renilla_ERa; [6]): 1.1; fold induction at 40 µM (Renilla_ERa; [5]): 1.2; Firefly F4, cmpd/DMSO (mean) (NR2F6; 2 uM, clone F4): 1.0; Firefly F4, cmpd/DMSO (mean) (NR2F6; 10 uM, clone F4): 1.0; Firefly F4, cmpd/DMSO (mean) (NR2F6; 40 uM, clone F4): 1.0
O=C(Nc1cccc(O)c1)c1cc(-c2ccc(Cl)c(Cl)c2)on1 [Compound C5]				1.3	1.2	1	1.6	2.0	0.7	0.5	1.1	1.3	1.4	1.2	1	0.9	0.8	0.8	2.2	1.7	
CCc1cc(C(=O)Nc2ccn(Cc3ccc(C)cc3)n2)no1 [Compound C6]				1.3	1.3	1	2.2	1.4	0.7	0.6	0.5	1.2	0.9	1	1	1.4	0.6	0.4	2.6	1.9	
CCc1cccc(Nc2cnn(-c3nc4ccccc4s3)c(=O)c2Cl)c1 [Compound C7]				0.9	0.8	0.8	0.8	0.5	1	0.3	0.4	1.1	1.4	0.8	0.8	0.6	0.5	0.4	2.1	2.1	activity (in words) (NR2F6): particularly good activity
COC(=O)c1ccc2oc(=O)c(S(=O)(=O)c3ccccc3)cc2c1 [Compound C11]				1.1	1.7	0.8	1.7	1.7	1.1	1.2	0.2	3.8	3.3	1.3	1.2	1.7	1.6	0.4	13.5	12.6	Firefly, cmpd/DMSO repeat 1 (NR2F6; [13]): 24.6; Firefly, cmpd/DMSO repeat 2 (NR2F6; [13]): 21.3; Firefly/Renilla (NR2F6 stable, clone F4) (NR2F6; Table 12, ratio Firefly/Renilla, NR2F6 stable clone F4): 1.8; Firefly, NR2F6 stable (clone F4)/pGL4 (NR2F6; Table 12, ratio of Firefly in NR2F6 stable clone F4 to pGL4): 7.0; Firefly, cmpd/DMSO repeat 1 (NR2F6; Table 12): 24.6; Firefly, cmpd/DMSO repeat 2 (NR2F6; Table 12): 21.3; activity (in words) (NR2F6): particularly good activity; also recorded: particularly promising
